Assay results published in patent publication US20070167405A1, “Galectins -1 and -4 in tumor development” (priority 2001, published 2007).
Several values for one entry are separate records, joined by “and”; a condition that tells them apart may be missing. Equal values may be shown once. Entries after “also recorded” stand apart in the source; their conditions may differ. Read-outs that look alike come from different tables or passages of the source. Values belong to the molecule of their own block, whether it stands above or below them.

Columns and labels:
[1] = biological target: T1, recombinant human galectin-4 (Homo sapiens, UniProt P56470); assay: SPR (BIAcore) equilibrium binding to immobilized galectin-4; set-up: key to Galectin-4 binding, KD: NB: non-binder; details: for binding to galectin-4 (in words): SPR assay
T1 construct: cDNA encoding full-length human galectin-4 was amplified from an EST clone; made in house; host or cells: E. coli BL21 (DE3)pLysS
T1 sequence (P56470 1-323): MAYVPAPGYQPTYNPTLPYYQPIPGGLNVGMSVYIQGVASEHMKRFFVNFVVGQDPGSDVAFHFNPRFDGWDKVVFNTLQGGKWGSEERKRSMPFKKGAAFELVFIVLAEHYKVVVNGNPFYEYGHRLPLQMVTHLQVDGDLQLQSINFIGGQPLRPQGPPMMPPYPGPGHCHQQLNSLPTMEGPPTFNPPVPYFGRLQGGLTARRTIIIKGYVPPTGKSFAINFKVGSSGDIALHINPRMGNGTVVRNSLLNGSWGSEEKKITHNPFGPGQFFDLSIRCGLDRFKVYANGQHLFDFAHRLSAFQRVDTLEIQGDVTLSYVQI
Experimental: (§1) Galectin binding affinity measurements were performed in a surface plasmon resonance (SPR) assay using […] instrument (BIAcore, Inc, Uppsala, Sweden). PBS with 5 mM β-mercaptoethanol was used as running buffer for all experiments. Purified recombinant human galectin-1 and galectin-4 were immobilized at different surface densities on CM5 carboxymethyldextran chip (BIAcore) in the presence of 150 mM lactose, using standard amine coupling chemistry. Galectin immobilization was performed at 5 μl/min flow rate. To ensure the maximum possible immobilization of recombinant proteins, carboxylmethyldextran surface was activated with a 15 min pulse of a mixture of 0.05 M N-hydroxysuccinimide (NHS) with 0.2 M N-ethyl-N′-(dimethylaminopropyl) carbodiimide (EDC). Recombinant galectins, diluted to 30 μg/ml in 10 mM Na Acetate buffer (pH 4.8 for galectin-1 and pH 5.5 for galectin-4) were coupled to the surface during a 15-minute injection. Following galectin injection, remaining activated groups on the surface of the chip were deactivated with a 7 min pulse of 1 M ethanolamine hydrochloride, pH 8.5. Blank, unmodified CM5 surface was used as a negative control for the corrections for refractive index changes due to the presence of lactulosamines.
(§2) Binding of lactulosamines was performed at 80 μl/min flow rate, with injection times of 15 sec. […] Instead, the equilibrium binding levels were examined and determined the equilibrium binding constant using steady state affinity fitting model (BIAevaluation software version 3.1).

[2] = biological target: recombinant human galectin-1 (Homo sapiens, UniProt P09382); assay: SPR (BIAcore) equilibrium binding to immobilized galectin-1; set-up: key to Galectin-1 binding, KD: NB: non-binder; details: for binding to galectin-1 (in words): SPR assay
Experimental: as §1, §2

CD8+ CTL clone [3] = assay: CD8+ CTL clone survival after TF peptide stimulation, with galectin-1 and inhibitors; format: cell-based; details: for prevention of cell death induced by galectin-1: 4 days, FIG. 10B; for restoring the ability of CTL's to proliferate: in presence of galectin-1, FIG. 10B
Excerpt: The ability of L2hmda to restore this activity is especially significant since TDG, a known galectin inhibitor, is toxic. However, L2hmda is not toxic. […] The CD8+ CTL clone was stimulated with TF peptide for 4 days and cell survival (% of starting number) measured by enumerating viability by trypan blue exclusion.

[4] = Toxicity statement on galectin inhibitors
[5] = biological target: galectin-1 binding to 90K/MAC-2BP (Homo sapiens, UniProt P09382); assay: ELISA, inhibition of galectin-1 binding to immobilized 90K; details: for inhibition of galectin-1 binding to 90K (in words): ELISA, FIG. 9A; for inhibition of binding of galectin-1 to 90K: at 156 μM, galectin-1 2.5 μg/ml (0.17 μM)
Experimental: (§3) Human 90K/MAC-2BP (thereafter called 90K) was purified from transfected EBNA-293 cells (lurisci, I., et al., Clin. Cancer Res. (2000) 6:1389-1393). Laminin was obtained from Boehringer Mannheim GmbH (Germany). The ELISA for galectin binding has been previously described (Tinari, N., et al., Int. J. Cancer (2001) 91:167-172). Briefly, Nunc Maxisorb microtiter wells were coated with 0.5 μg/well of 90K or laminin. Recombinant galectin-1 (2.5 μg/ml or 0.17 μM) was diluted in PBS with 0.1% Tween-20 and added to wells coated with glycoproteins, and galectin-1 binding was detected with anti-galectin-1 rabbit antiserum. In binding-inhibition experiments, recombinant galectin-1 was diluted in PBS-0.1% Tween-20 containing indicated concentration of lactulosamines or lactose.

CD8+ CTL clone [6] = assay: Cytokine production by CD8+ CTL clone after TF peptide stimulation, with galectin-1 and inhibitor; format: cell-based
Experimental: Treatment in vitro of CD4+ and CD8+T cells with recombinant soluble galectin-1 inhibits their survival and ability to secrete cytokine, such as interferon-γ and IL-2. […] In FIG. 10A, cells are stimulated by TF peptide and the levels of interferon-γ produced measured in nanogram/milliliter (ng/ml). As shown, galectin-1 inhibits interferon-γ secretion in a dose-dependent manner. […] Similar data were seen when another cytokine, IL-2, was measured (not shown).

N202.1A tumor cells = assay: N202.1A tumor growth in Neu mice; format: in vivo; details: 100 μl of 100 μM daily combined with dendritic cell therapy, 25 days, FIG. 11, listed as L2hmda
Experimental: Neu mice were inoculated on Day 0 with 10^6 N202.1A tumor cells. The animals were divided into four groups of four mice each. On Day 7, groups 2 and 4 were subjected to dendritic cell therapy which involved immunization with 10^6 dendritic cells pulsed with apoptotic N202.1A cells and intraperitoneal injections of recombinant IL-2 (10^4 1.U./injection) from Day 10 to […]. Groups 3 and 4 received injections of 100 μl of 100 μM L2hmda daily.

[7] = biological target: galectin-1 binding to laminin (Homo sapiens, UniProt P09382); assay: ELISA, inhibition of galectin-1 binding to immobilized laminin; details: for inhibition of galectin-1 binding to laminin (in words): ELISA, FIG. 9B; for inhibition of binding of galectin-1 to laminin: at 156 μM, galectin-1 2.5 μg/ml (0.17 μM)
Experimental: as §3

cancer cells = details: cited from earlier work
breast cancer cells = details: nude mouse model; cited from earlier work
[8] = SPR steady state affinity fit, Table I, read-out: Galectin-4 binding, KD
[9] = SPR steady state affinity fit, Table I, read-out: Galectin-1 binding, KD
[10] = SPR, full-length galectin-4 with two binding domains, read-out: KD for galectin-4
[11] = SPR steady-state analysis, read-out: KD value for galectin-1
[12] = SPR steady state affinity fit, Table I

Sequence of galectin-1 binding to 90K/MAC-2BP (P09382 2-135 limits assumed): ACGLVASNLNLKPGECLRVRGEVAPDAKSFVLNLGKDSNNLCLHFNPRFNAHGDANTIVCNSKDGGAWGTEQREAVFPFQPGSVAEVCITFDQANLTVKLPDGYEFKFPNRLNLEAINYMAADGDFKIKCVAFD
Sequence of galectin-1 binding to laminin (P09382 2-135 limits assumed): as above
Sequence of recombinant human galectin-1 (P09382 whole entry): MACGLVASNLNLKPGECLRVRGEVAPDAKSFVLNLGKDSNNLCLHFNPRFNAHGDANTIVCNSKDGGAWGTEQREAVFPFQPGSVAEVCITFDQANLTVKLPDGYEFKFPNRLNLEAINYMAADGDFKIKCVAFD

Kd [1, 8]: 1010 µM
Kd [2, 9]: 133 µM
Molecule: CC(NCC(=O)C(O)C(OC1OC(CO)C(O)C(O)C1O)C(O)CO)C(=O)O [Lactulose-D-alanine]

Molecule: OC[C@H]1O[C@@H](S[C@@H]2O[C@H](CO)[C@H](O)[C@H](O)[C@H]2O)[C@H](O)[C@@H](O)[C@H]1O [TDG, thiodigalactolate, reference compound]
prevention of cell death induced by galectin-1 (CD8+ CTL clone [3]; trypan blue exclusion): prevented the majority of cell death
restoring the ability of CTL's to proliferate (CD8+ CTL clone [3]): able to restore
toxicity [4]: toxic

Molecule: O=C(O)C(Cc1c[nH]cn1)NCC(=O)C(O)C(OC1OC(CO)C(O)C(O)C1O)C(O)CO [Lactulose-L-histidine]
Kd [1, 8]: 2280 µM
Kd [2, 9]: 191 µM

Kd [1, 8]: 1090 µM and 1260 µM
Kd [2, 9]: 200 µM
Molecule: O=C(O)C(Cc1ccccc1)NCC(=O)C(O)C(OC1OC(CO)C(O)C(O)C1O)C(O)CO [Lactulose-L-phenylalanine]

Kd [1, 8]: 770 µM and 880 µM and 1090 µM
Kd [2, 9]: 128 µM and 223 µM
Molecule: CC(C)CC(NCC(=O)C(O)C(OC1OC(CO)C(O)C(O)C1O)C(O)CO)C(=O)O [Lactulose-D-leucine]

Molecule: OCC1OC(OC2C(O)COC(O)(CNCCCCCCNCC3(O)OCC(O)C(OC4OC(CO)C(O)C(O)C4O)C3O)C2O)C(O)C(O)C1O (stereo not drawn) [Dilactulose-hexamethylenediamine, dilactulose-hexamethylenediamine]
binding to galectin-4 (in words) [1]: superior in binding
Kd [1, 8]: 78 µM and 83 µM and 105 µM and 115 µM
Kd [1, 10]: ~80 µM
inhibition of galectin-1 binding to 90K (in words) [5]: most potent inhibitor
inhibition of binding of galectin-1 to 90K [5]: about 80%
half-life, weighted average of the two components of dissociation rate [2]: 7 s
binding to galectin-1 (in words) [2]: superior in binding
binding to galectin-1 (in words) ([2]; listed as L2hmda): significantly stronger
Kd [2, 11]: ~1.5 µM
half-life, fast component ([2]; corresponding to fast koff): 3 s
half-life, slow component ([2]; corresponding to slow koff): 19 s
koff, fast component ([2]; two-component dissociation model, fast component 40% of overall rate): 0.16 to 0.2 s⁻¹
koff, slow component ([2]; two-component dissociation model, slow component 60% of overall rate): 0.036 s⁻¹
prevention of cell death induced by galectin-1 (CD8+ CTL clone [3]; trypan blue exclusion): prevented the majority of cell death
restoring the ability of CTL's to proliferate (CD8+ CTL clone [3]): able to restore
restoration of interferon secretion (CD8+ CTL clone [6]; galectin-1 7 μM, L2hmda 200 μM, FIG. 10C): restores the interferon 7 secretion to normal
galectin-1 mediated suppression of IFN-γ production by the CTL (CD8+ CTL clone [6]; increasing concentrations (50-200 uM) of inhibitor): completely prevented
tumor volume (N202.1A tumor cells): superior to treatment with either alone; also recorded: very little tumor volume enhancement
inhibition of galectin-1 binding to laminin (in words) [7]: most potent inhibitor
inhibition of binding of galectin-1 to laminin [7]: about 70%

Kd [1, 8]: 530 µM
inhibition of binding of galectin-1 to 90K [5]: about 50%
Kd [2, 9]: 70 µM
inhibition of binding of galectin-1 to laminin [7]: ~40%
Molecule: O=C(CN1CCCC1C(=O)O)C(O)C(OC1OC(CO)C(O)C(O)C1O)C(O)CO [Lactulose-L-proline]

Kd [1, 8]: 1040 µM
Kd [2, 9]: 106 µM
Molecule: O=C(O)CCCNCC(=O)C(O)C(OC1OC(CO)C(O)C(O)C1O)C(O)CO [Lactulose-L-GABA]

Molecule: fructose-D-leucine
binding to galectin-4 (in words) [1]: unable to bind
Galectin-4 binding, KD [1, 12]: NB
binding to galectin-1 (in words) [2]: did not
binding to galectin-1 (in words) ([2]; listed as fructose coupled to leucine): unable to bind
Galectin-1 binding, KD [2, 12]: NB

Kd [1, 8]: 505 µM and 800 µM and 1010 µM
Kd [1, 10]: ~800 µM
inhibition of binding of galectin-1 to 90K [5]: about 50%
binding to galectin-1 (in words) [2]: could bind
Kd [2, 9]: 113 µM and 200 µM
Kd [2, 11]: ~110 µM
inhibition of binding of galectin-1 to laminin [7]: ~40%
Molecule: CC(C)CC(NCC(=O)C(O)C(OC1OC(CO)C(O)C(O)C1O)C(O)CO)C(=O)O [Lactulose-L-leucine, lactulose-L-leucine]
adhesion of cancer cells to endothelium (cancer cells): blocks
clonogenic growth and metastasis of breast cancer cells (breast cancer cells): block

Molecule: CSCCC(NCC(=O)C(O)C(OC1OC(CO)C(O)C(O)C1O)C(O)CO)C(=O)O [Lactulose-L-methionine]
Kd [1, 8]: 1270 µM
Kd [2, 9]: 127 µM

binding to galectin-4 (in words) [1]: unable to bind
Galectin-4 binding, KD [1, 12]: NB
binding to galectin-1 (in words) [2]: unable to bind
Galectin-1 binding, KD [2, 12]: NB
Molecule: OC[C@H]1O[C@@](CO)(O[C@H]2O[C@H](CO)[C@@H](O)[C@H](O)[C@H]2O)[C@@H](O)[C@@H]1O [Sucrose, reference compound]

Kd [1, 8]: 3830 µM
Kd [2, 9]: 376 µM
Molecule: CC(O)C(NCC(=O)C(O)C(OC1OC(CO)C(O)C(O)C1O)C(O)CO)C(=O)O [Lactulose-L-threonine]

Kd [1, 8]: 719 µM and 730 µM
Kd [2, 9]: 158 µM
Molecule: CC(C)C(NCC(=O)C(O)C(OC1OC(CO)C(O)C(O)C1O)C(O)CO)C(=O)O [Lactulose-L-valine]

Kd [1, 8]: 1490 µM and 1720 µM
Kd [2, 9]: 150 µM
Molecule: CC(NCC(=O)C(O)C(OC1OC(CO)C(O)C(O)C1O)C(O)CO)C(=O)O [Lactulose-L-alanine]

binding to galectin-4 (in words) [1]: able to bind
inhibition of galectin-1 binding to 90K (in words) [5]: inhibited
inhibition of binding of galectin-1 to 90K [5]: about 20%
binding to galectin-1 (in words) [2]: able to bind
inhibition of galectin-1 binding to laminin (in words) [7]: inhibited
inhibition of binding of galectin-1 to laminin [7]: ~10%
Molecule: OC[C@H]1O[C@@H](O[C@H]2[C@H](O)[C@@H](O)[C@H](O)O[C@@H]2CO)[C@H](O)[C@@H](O)[C@H]1O [β-lactose, reference compound]

Molecule: galectin-1: recombinant soluble galectin-1, immunosuppressive lectin added to T cells
death of T cells (CD8+ CTL clone [3]; over the 4 day period, trypan blue exclusion): 90%
IFN-γ production (ELISA) (CD8+ CTL clone [6]; supernatants 48 hr after stimulation, galectin-1 0-7 uM): suppressed in a dose dependent fashion

Kd [1, 8]: 550 µM
Kd [2, 9]: 129 µM
Molecule: CCC(C)C(NCC(=O)C(O)C(OC1OC(CO)C(O)C(O)C1O)C(O)CO)C(=O)O [Lactulose-L-isoleucine]

binding to galectin-4 (in words) [1]: unable to bind
Galectin-4 binding, KD [1, 12]: NB
binding to galectin-1 (in words) [2]: unable to bind
Galectin-1 binding, KD [2, 12]: NB
Molecule: OC[C@H]1O[C@H](O[C@H]2[C@H](O)[C@@H](O)[C@H](O)O[C@@H]2CO)[C@H](O)[C@@H](O)[C@@H]1O [Maltose, reference compound]

Kd [1, 8]: 790 µM
inhibition of binding of galectin-1 to 90K [5]: about 20%
Kd [2, 9]: 102 µM
inhibition of binding of galectin-1 to laminin [7]: ~10%
Molecule: O=C(O)CNCC(=O)C(O)C(OC1OC(CO)C(O)C(O)C1O)C(O)CO (stereo not drawn) [Lactulose-glycine]
